The source of these data is article PMC8532147, “Dual Stimuli-Responsive Dynamic Covalent Peptide Tags: Toward Sequence-Controlled Release in Tumor-like Microenvironments” (Journal of the American Chemical Society, 2021).

The fraction remaining is the share of the starting amount still present when the sample was taken. The low end stands for a greater loss, the high end for greater stability.

The nature of data set [1]: in vitro. Format: in vitro ADME. The settings on record: calf (bovine), cells or culture medium. The procedure:
Next, the stability of 2Ox in glucose containing solutions were tested since it is known that phenyl boronic acids interact with sugars.[11]2Ox was incubated in glucose solution (1 g/mL) or […] DMEM cell media (1 g/mL), which was used in the subsequent cell studies. The analysis was performed for up to 3 days and quantitative analysis was obtained using single ion monitoring (SIM) of m/z of 2Ox (m/z = 664, 388) in LC-ESI-MS to improve sensitivity in detection (SI, Figure S20). Fmoc-Phe-OH was used as an internal standard. […] The amount of 2Ox decreased by around 20% in low glucose DMEM cell culture media after a day of incubation (SI, Figure S20). The decrease is presumably due to the disulfide exchange with free thiols inside the media (10% FCS and cysteine according to manufacturer’s specifications). Nevertheless, 2Ox is sufficiently stable to potential thiol exchange for subsequent biological studies.
(§1) The UV (280 nm) signals were integrated and normalized against the Fmoc-Phe standard as well as the SIM for 664 against the SIM of 388. The relative area was then plotted against the incubation time.
(§2) Figure S 20: Stability of 2Ox in glucose solution (GS) and low glucose cell media (LGM) detected by UV -Vis and ESI-MS. […]
(§3) expected due to free thiols in the media (FCS and cysteine).
(§4) 11. Stability in cytosol under oxidative/reductive conditions
(§5) Stability in liver cytosol […]

Data set [2] is described as follows: in vitro. Format: in vitro ADME. The settings on record: s9 or cytosol. On the procedure:
Such differences in the physiological concentration of GSH have been exploited for controlled release. Thus, the GSH-induced cleavage of 1 mM of 2Ox was probed by incubation in commercially available liver cytosols spiked with physiologically relevant concentrations of GSH:GSSG (1:0.025 and 10:0.25 mM). The analysis was performed for up to 60 min and quantitative analysis was obtained using SIM in LC-MS (2Ox, m/z = 1328, 664) with Fmoc-Phe-OH as an internal standard (SI, Figure S22). […] On the other hand, at a concentration of 10 mM (molar ratio 10:1) the reaction was slightly slower due to longer equilibration time. […] Therefore, although the oxidized complex is stable over a longer period in serum (Figure 6a), GSH release could be induced in cytosolic conditions in cancer cells (Figure 6b), which would be important for controlled release as a drug delivery system.
as §1, §2, §3, §4, §5

Data set [3] can be described thus: Stability under oxidative conditions (0.1% hydrogen peroxide). Format: physicochemical. As to conditions: LC-MS SIM. On the procedure: We further determined the stability of the hybridized sequences under oxidative conditions. The oxidized complex, 2Ox was incubated with 0.1% hydrogen peroxide ([…]). Aliquots were analyzed via LC-MS over different time intervals up to 60 min (SI, Figure S23) using SIM detection. Besides monitoring the decrease in the m/z of 2Ox, SIM also offers the possibility to identify degradation products and allowed us to map the chemical processes involved in the oxidative condition implemented. […] We observed complete conversion to compound 3 (Figure 6c,d). […]
12. Fluorescence quenching assay
Four stock solutions were prepared: 5 mM OSCSO, 2 μM DL488 -BSCSB in a phosphate buffer (100 mM, pH = 6.0, 2.5 mM TCEP) and 5 mM OSCSO, 2 µM DL488-BSCSB in a phosphate buffer (100 mM, pH = 7.4, 2.5 mM TCEP). […] FQA was measured immediately.
The procedure was repeated 3 times both for pH 6.0 and 7.4. Each point on the graph represents mean average of normalized fluorescence for one concentration from the series and error bars represent standard […]
The NMR spectra were recorded on a Bruker AVANCE III 850 MHz spectrometer with a 5 mm triple resonance TXI 1H/13C/15N probe equipped wit h a z-gradient. All spectra were measured at 298 K. The spectra were analyzed using Bruker TopSpin 3.6.1. […]

Molecules are shown by their SMILES. Bridge positions count the residues as written; N and C are the ends. Square brackets hold non-standard residues; d marks the D form. Peptide text beside a SMILES is read from it. I, II: the chains in the order shown. Phe(4-B(OH)2) = N[C@@H](Cc1ccc(B(O)O)cc1)C(=O)O; Dopa = N[C@@H](Cc1ccc(O)c(O)c1)C(=O)O

In turn, `NC(=O)[C@H](Cc1ccc(B(O)O)cc1)NC(=O)[C@H](CO)NC(=O)[C@H](CSSC[C@H](NC(=O)[C@H](CO)NC(=O)[C@@H](N)Cc1ccc(O)c(O)c1)C(=O)N[C@@H](CO)C(=O)N[C@@H](Cc1ccc(O)c(O)c1)C(N)=O)NC(=O)[C@H](CO)NC(=O)[C@@H](N)Cc1ccc(B(O)O)cc1` [2Ox] (I: H-[Phe(4-B(OH)2)]SCS[Phe(4-B(OH)2)]-NH2 / II: H-[Dopa]SCS[Dopa]-NH2; disulfide I:3-II:3) gave a metabolised at 24 h in the data set “in vitro [1]” of approximately 20%. Besides, the fraction remaining at 10 min, 1 mM in “in vitro [2]” was determined as 80%. The starting material left entry in data set [3] (1 mM in ammonium bicarbonate with 0.1% hydrogen peroxide (30 μM), after 10 min) is given as “no starting material is left”. Moreover, the “dissociation into the single peptide sequences” value in data set [3] (0.1% hydrogen peroxide (30 μM), up to 60 min) is given as “did not dissociate”.
